“Also recorded” adds a separate entry of the source. Like-named read-outs stand apart in the source and are kept apart here. Ends that are not written are not given here.

One series in a line: liver homogenate. The following applies: C57BL/6 mice.
Another series can be described thus: faeces homogenate. As to conditions: C57BL/6 mice.
A further series can be described thus: kidney homogenate. As to conditions: C57BL/6 mice.
The nature of a further series: muscle homogenate. The following applies: C57BL/6 mice.
A short description of series [1]: colon homogenate (incl. caecum). As to conditions: C57BL/6 mice.
In another series the test system is human myotubes. As to conditions: MTT dose-response curve. The method, then: (§1) Initially, MTT concentration‐response experiments in murine and human myoblasts as well as in myotubes were performed.
(§2) The 95% confidence interval of this curve is shown as grey area. IC10 is shown as a red vertical line.

The subject of another series is C2C12 myotubes. As to conditions: Murine myotubes, MTT dose-response curve. The method, then:
as §1, §2
(§3) Data are means ± SEM. […] (D–F) Data are means ± SEM. *p < .05; **p < .01; ***p < .001; two‐tailed Welch's t‐test. […] The exponent is read as -7; the minus sign and the digit are not certain. / Panel A: no compound label is printed beside the value. 'QSP' comes from the y-axis title of the same panel.

The test system of the next series is C2C12 myoblasts. As to conditions: Murine myoblasts, MTT dose-response curve. The method, then:
as §1
(§4) Supplementary Figure 1. […] A) C2C12 myoblasts; B) human myoblasts. The x-axis indicates the different QSP concentrations, while the y-axis represents MTT reduction relative to placebo (placebo = 1.0). Squares (+ error bars) are means (+ SEM) of n=8-10 for each concentration, with the curve representing the best fitting 3-parameter logistic model around the means. The 95% confidence interval of this curve is shown as grey area. IC10 is shown as a red vertical line.

In a further series the test system is human myoblasts. The procedure:
as §1, §4

In another series the test system is C. elegans. As to conditions: adult worms treated once with 1 µM; n = 341, 5 independent experiments. The text has this: Data presented are means ± SEM. * P < 0.05; ** P < 0.01 and *** P < 0.001; Welch’s 2-sided t-test with placebo as reference.DACBSupplementary Figure 2
Another series is described as follows: in vitro. The following applies: human, Caco-2.
Description: as §3
(§5) [picture] Supplementary Figure 5. […] Data are means ± SEM.Supplementary Figure 5

The test system of another series is CaCo‐2 monolayer. Description: in vitro. As to conditions: CaCo-2 monolayer, apical-basal, 4°C, n = 6.
Description: as §3, §5

For series [2] the following is noted: ex vivo. The method, then:
The powdered medium is dissolved in 900 mL water while stirring. To this solution, 0.3790 g CaCl2×2H2O and 2.098 g NaHCO3 are subsequently added while stirring. NaOH or HCl was used to adjust to pH 7.4. This solution is then further diluted to 1000 mL using ultrapure water.
The blood was collected in a 1.5 mL Eppendorf tube after decapitating the mouse. The blood of the 4 mice was pooled and centrifuged for 10 min at 1000 g at 5 °C. The supernatant (serum) was transferred to a 500 µL Eppendorf and was immediately frozen and stored at -35 °C.
The liver (5.0070 g) was collected from four C57BL/6 mice after cervical dislocation. After cleaning and rinsing the organ using ice-cold KH buffer, the liver was cut in little pieces and transferred into a 50 mL tube to which 36 mL ice-cold KH buffer was added. The liver was then homogenized with mixer. After the larger particles were allowed to settle for about 30 minutes at 5 °C, approximately 25 mL of the middle layer was transferred into a 50 mL Falcon tube using a plastic pipette. After shaking the homogenate, the homogenate was dispensed into ten 2 mL Eppendorf tubes, and stored at -35 °C until use. The protein content of the homogenate was determined to be 18.24 mg/mL using the Pierce Modified Lowry Protein Assay method. Just before use, the homogenate was diluted to a protein concentration of 0.6 mg/mL (i.e. 300 µg / 500 µl) by the addition of 29.4 mL of KH buffer to 1000 µl of the homogenate.
The kidneys (1.4143 g) were collected from four C57BL/6 mice after cervical dislocation. After cleaning and rinsing the organs using ice-cold KH buffer, the kidneys were cut in little pieces and transferred into a 50 mL tube to which 24 mL ice-cold KH buffer was added. The kidneys were then homogenized with mixer. After the larger particles were allowed to settle for about 30 minutes at 5 °C, approximately 10 mL of the middle layer was transferred into a 50 mL Falcon tube using a plastic pipette. After shaking the homogenate, the homogenate was dispensed into five 2 mL Eppendorf tubes, and stored at -35 °C until use. The protein content of the homogenate was determined to be 5.92 mg/mL using the Pierce Modified Lowry Protein Assay method. Just before use, the homogenate was diluted to a protein concentration of 0.6 mg/mL (i.e. 300 µg / 500 µl) by the addition of 8.87 mL of KH buffer to 1000 µl of the homogenate.
The colons (incl. caecum) (1.4174 g) were collected from four C57BL/6 mice after cervical dislocation. After cleaning and rinsing the organs using ice-cold KH buffer, the colons were cut in little pieces and transferred into a 15 mL tube to which 5 mL ice-cold KH buffer was added. The colons were then homogenized with mixer. After the larger particles were allowed to settle for about 30 minutes at 5 °C, approximately 2 mL of the middle layer was dispensed into a 2 mL Eppendorf tube, and stored at -35 °C until use. The protein content of the homogenate was determined to be 2.35 mg/mL using the Pierce Modified Lowry Protein Assay method. Just before use, the homogenate was diluted to a protein concentration of 0.6 mg/mL (i.e. 300 µg / 500 µl) by the addition of 2.92 mL of KH buffer to 1000 µl of the homogenate.
Fresh faeces (0.1810 g) was collected from four C57BL/6 mice. The faeces was then cut in little pieces and transferred into a 15 mL tube to which 5 mL ice-cold KH buffer was added. […] The protein content of the homogenate was determined to be 1.48 mg/mL using the Pierce Modified Lowry Protein Assay method. […]

Another series deals with C2C12 myoblast. Description: Viability assays other than MTT on C2C12 myoblasts. As to conditions: 1 µM; trypan blue, Hoechst/PI, LDH release, Bax/Bcl2, Apotox assay. Type of series: cell-based, murine.
For series [3] the following is noted: germ-free mice inoculated with genetically modified E. coli continuously producing iAM373.
Description: as §3

Regarding SIFTLVA, the fragment found entry in “liver homogenate” is reported as “FTLVA, major”; in the series “faeces homogenate” it was “SIF, major”; in “kidney homogenate”, “SIFT, major; also recorded: SIFTL, major”; in the series “muscle homogenate” it was “SIFTL, major”; in series [1], “SIFTL, major”.
As for SIFTLVA [iAM373], the estimated plasma concentration in iAM373-positive older residents is 453 pM. In the series on human myotubes, this substance had an IC50 of 5.4 nM. Also, in the series on C2C12 myotubes, half-maximal inhibition (IC50) required 13 nM. This substance yielded a half-inhibitory concentration (IC50) with C2C12 myoblasts of 61 nM. This substance registered a 50% inhibitory concentration (IC50) with human myoblasts (Human myoblasts, MTT dose-response curve) of 180 nM. The IC90 with human myoblasts (human myoblasts, MTT) is 930 nM. In the series with C. elegans, the “effect on survival of C. elegans” value is given as “without a clear effect on survival”. The substance further came in with an apical-to-basolateral permeability (Papp A→B) in the series “in vitro” of 0.14 ×10⁻⁶ cm/s. Besides, the “apical‐basal permeability coefficient (Papp)” value with CaCo‐2 monolayer is 0.87×10^–7 cm/s. The “Main metabolite at approx. T1/2” value in series [2] (murine colon homogenate) is recorded as “SIFTL (180 min)”. In addition, the “Main metabolite at approx. T1/2” value in series [2] (murine faeces homogenate) was “SIF (60 min)”. In addition, the “Main metabolite at approx. T1/2” value in series [2] (murine kidney homogenate) was “SIFT (30 min) SIFTL (30 min)”. The “Main metabolite at approx. T1/2” value in [2] (murine liver homogenate) is on record as “FTLVA (180 min)”. Also, the “Main metabolite at approx. T1/2” value in series [2] (murine muscle homogenate) was “SIFTL (180 min)”. The “cytotoxic or cytostatic effect in viability assays other than MTT” value in the series with C2C12 myoblast was “did not show a clear cytotoxic or cytostatic effect”. For the same substance, in series [3], the “presence in blood circulation after oral gavage of iAM373-producing E. coli” value is recorded as “detected in the blood circulation”.

The values above are taken from PMC9561422 (Clinical and Translational Medicine, 2022).
